Values of other authors, collected in patent publication US12016851B2, “Modified release pharmaceutical formulations comprising deferiprone” (Chiesi Farmaceutici S.p.A., priority 2022, dated 2024).

Assays:
[1] = in vivo
[2] = monotherapy; Maggio 2002, Galanello 2006

- half-life [1]: 2 to 3 h
Compound: Cc1c(O)c(=O)ccn1C [Deferiprone, 3-hydroxy-1,2-dimethylpyridin-4-one]
- improving myocardial siderosis and cardiac function [2]: superior to deferoxamine monotherapy
